# ChEMBL document CHEMBL1146623, “Two antiviral compounds from the plant Stylogne cauliflora as inhibitors of HCV NS3 protease” (Bioorg Med Chem Lett, 2003)
# pIC50: −log10 of the molar value.
# Tests used:
# [1] = target: T1, NS3 (Hepatitis C virus, UniProt A3EZJ3); assay: Inhibitory activity evaluated in the HCV NS3 protease activity assay; design: species or system Hepacivirus hominis
# [2] = target: T1, NS3; assay: Inhibitory activity evaluated in the HCV NS3 protease assay; design: species or system Hepacivirus hominis
# T1 sequence (A3EZJ3 whole entry): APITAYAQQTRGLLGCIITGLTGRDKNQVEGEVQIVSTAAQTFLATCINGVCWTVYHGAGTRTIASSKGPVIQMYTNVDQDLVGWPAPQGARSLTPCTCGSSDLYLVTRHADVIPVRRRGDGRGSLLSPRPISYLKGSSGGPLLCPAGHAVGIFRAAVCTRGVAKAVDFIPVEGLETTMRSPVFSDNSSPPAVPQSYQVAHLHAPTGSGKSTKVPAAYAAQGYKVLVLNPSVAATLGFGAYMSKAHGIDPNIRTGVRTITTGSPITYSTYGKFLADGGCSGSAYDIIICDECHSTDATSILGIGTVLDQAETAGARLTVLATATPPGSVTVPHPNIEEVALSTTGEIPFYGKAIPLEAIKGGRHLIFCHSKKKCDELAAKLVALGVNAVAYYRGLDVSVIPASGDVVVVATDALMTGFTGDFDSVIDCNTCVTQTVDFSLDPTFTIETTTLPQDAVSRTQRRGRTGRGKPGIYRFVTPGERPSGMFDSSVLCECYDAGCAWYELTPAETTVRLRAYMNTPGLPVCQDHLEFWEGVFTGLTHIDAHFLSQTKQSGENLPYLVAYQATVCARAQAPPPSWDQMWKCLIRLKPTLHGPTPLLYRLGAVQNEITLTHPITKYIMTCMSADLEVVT
pIC50 [1],pIC50 [2],SMILES
6.52,,O=C1OC[C@H]2O[C@@H](Oc3cc(O)c4c(c3)OC(c3ccccc3)CC4=O)[C@H](O)[C@@H](O)[C@@H]2OC(=O)c2cc(O)c(O)c(O)c2-c2c1cc(O)c(O)c2O (some centres not stated)
,6.10,O=C1OC[C@H]2O[C@@H](Oc3cc(O)c(C(=O)CCc4ccccc4)c(O)c3)[C@H](O)[C@@H](O)[C@@H]2OC(=O)c2cc(O)c(O)c(O)c2-c2c1cc(O)c(O)c2O [THONNINGIANIN B]
